# Where two headings read alike, the source gives them in different places.
# Columns and labels:
# Sprague-Dawley Ratten = test: Neuropathic pain in the rat, Bennett model (chronic constriction injury, cold allodynia); type: in vivo, Ratte
# Procedure: Die Untersuchung auf Wirksamkeit im neuropathischen Schmerz wurde im Bennett-Modell (chronic constriction injury; Bennett und Xie, 1988, Pain 33: 87-107) untersucht.
# Sprague-Dawley Ratten mit einem Gewicht von 140-160 g werden unter Nembutal-Narkose mit vier losen Ligaturen des rechten nervus ischiaticus versehen. Die Tiere entwickeln an der vom geschädigten Nerv innervierten Pfote eine Überempfindlichkeit, die nach einer Erholungsphase von einer Woche über etwa vier Wochen mittels einer 4°C kalten Metallplatte quantifiziert wird (Kälte-Allodynie). Die Tiere werden für einen Zeitraum von 2 min. auf dieser Platte beobachtet und die Anzahl der Wegziehreaktionen der geschädigten Pfote wird gemessen. Bezogen auf den Vorwert vor Substanzapplikation wird die Substanzwirkung über einen Zeitraum von einer Stunde an vier Zeitpunkten (15, 30, 45, 60 min. nach Applikation) bestimmt und die resultierend Fläche unter der Kurve (AUD) sowie die Hemmung der Kälte-Allodynie zu den einzelnen Messpunkten in Prozent Wirkung zur Vehikelkontrolle (AUD) bzw. zum Ausgangswert (Einzelmesspunkte) ausgedrückt (%MPE). Die Gruppengröße beträgt n=10, die Signifikanz einer anti-allodynischen Wirkung wird über eine Varianzanalyse (repeated measures ANOVA; * p ≤ 0.05; Armitage und Berry, 1987, Stat. Methods in Medical Research, London: Blackwell Scientific Publications) bestimmt.
# [1] = tested on: vGLUT1- bzw. vGLUT2-Transporter; test: Glutamate uptake in rat crude synaptic vesicles ([3H]-glutamate); type: biochemical, Ratte; conditions: for vGLUT (Ratte), Hemmung [%]: test concentration not given
# Description: Die agonistische bzw. antagonistische Wirkung der zu untersuchenden Verbindungen am vGLUT1- bzw. vGLUT2-Transporter der Spezies Ratte kann mit folgendem Assay bestimmt werden.
# Glutamat-Uptake in Rattenvesikel ('rat crude synaptic vesicles')
# Die Präparation von Vesikeln wurde aus Rattengehirn-Homogenaten (männlichen Ratten, Stamm Wistar SPF, 150-250 g Gewicht) durchgeführt gemäß Roseth et al. (1995) J. Neurochem. 65: 96-103, der sich auf Whittaker et al. (1964) Biochem J. 90, 293-303 und Fykse und Fonnum (1988) J. Neurochem. 50: 1237-1242 bezieht.
# Hierzu wurden frisch entnommene Rattengehirne in 0,32 M Saccharose, 10 mM TRIS-maleat, 1 mM EGTA, pH 7,4 (10 ml/g Frischgewicht) mit einem Potter-Homogenisator (Fa. Braun/Melsungen; 5 Kolbenhübe bei 800 Upm) unter Eiskühlung homogenisiert und anschließend für 10 Minuten bei 3.000 g und 4°C zentrifugiert. Der resultierende Überstand wurde bei 20.000 g für 30 Minuten bei 4°C zentrifugiert. Das entstandene Pellet wurde dann im Verhältnis 1:3 mit 10 mM TRIS-maleate, 0,1 mM EGTA, pH 7,4 osmotisch geschockt und die Suspension bei 17000g für 30 min (4°C) zentrifugiert. Die im Überstand verbliebenen Vesikel wurden nun auf einen Dichtegradienten aus 0,6 M Saccharose in 10 mM TRIS-maleat, 1 mM EGTA, pH 7.4 und 0.4 M Saccharose in 10 mM TRIS-maleat, 1 mM EGTA, pH 7.4 geschichtet. Eine Ultrazentrifugation der Gradienten im Ausschwingrotor bei 65000g für 2h (4°C) schloss sich an. Die Vesikel-Fraktion wurde von der 0.4 M Saccharose-Bande isoliert und im Uptake-Versuch eingesetzt.
# Die Substratlösung für den Uptake von [^3H]-Glutamat bestand aus ATP (neutralisiert mit Trisma base; 2 mM im Endansatz), Glutamat (0.5 mM im Endansatz) und ^3H-Glutamat (0.5 µCi im Endansatz). In 14 ml-Reagiergefäßen (Sarstedt, Artikel-Nr.: 798438) wurden jeweils 0,3 ml Gesamtvolumina (n=2/Probe) pipettiert in der folgenden Reihenfolge: 1.) 165 µl Inkubationspuffer (110 mM Kaliumtartrat, 10 mM TRIS-maleat, pH 7,4, 4 mM MgCl2), 2.) 10 µl Testsubstanz oder Vehikelkontrolle oder blank, 3.) 100 µl synaptische Vesikel. Es schloss sich eine Vorinkubation von 15 min bei 30°C an (nur blank-Ansätze befanden sich hierbei auf Eis). Danach wurde der Uptake durch Zugabe von 25 µl der oben beschriebenen Substratlösung gestartet. Die Reaktion wurde nach 5 min durch Zugabe von 7,0 ml eiskalter 150 mM KCl gestoppt. Anschließend wurden die Proben mit Hilfe des Brandel Cell Harvesters Typ M-24R über einen Membranfilter der Porengröße 0,8 µm abgesaugt und zweimal mit eiskalter 150 mM KCl nachgewaschen. Die Messung erfolgte am beta-Counter nach 15 h in 10 ml Szintillatorflüssigkeit (Filter Count).
# NMRI-Mäuse = test: Phenylquinone-induced writhing test in the mouse; type: in vivo; conditions: 10 mg/kg
# Description: Die Untersuchung der Verbindungen der allgemeinen Formel (I) auf analgetische Wirksamkeit wurde im Phenylchinon-induzierten Writhing an der Maus, modifiziert nach I.C. Hendershot und J. Forsaith (1959) J. Pharmacol. Exp. Ther. 125, 237-240 durchgeführt. Die entsprechende Literaturbeschreibung wird hiermit als Referenz eingeführt und gilt als Teil der Offenbarung.
# Dazu wurden männliche NMRI-Mäuse mit einem Gewicht von 25 bis 30 g verwendet. Gruppen von 10 Tieren pro Verbindungsdosis erhielten 10 Minuten nach intravenöser Gabe der zu untersuchenden Verbindungen 0,3 ml/Maus einer 0.02%igen wässrigen Lösung von Phenylchinon (Phenylbenzochinon, Fa. Sigma, Deisenhofen, Deutschland; Herstellung der Lösung unter Zusatz von 5 Gew.-% Ethanol und Aufbewahrung im Wasserbad bei 45°C) intraperitoneal appliziert. Die Tiere wurden einzeln in Beobachtungskäfige gesetzt. Mit Hilfe eines Drucktastenzählers wurde die Anzahl der schmerzinduzierten Streckbewegungen (sogenannte Writhingreaktionen = Durchdrücken des Körpers mit Abstrecken der Hinterextremitäten) 5 bis 20 Minuten nach der Phenylchinon-Gabe ausgezählt. Als Kontrolle wurden Tiere mit geführt, die Vehikellösung (i.v.) und Phenylchinon (i.p.)erhalten hatten. Alle Verbindungen wurden in der Standarddosierung von 10 mg/kg getestet. […]
# Mäusen (NMRI) = test: Formalin test in the mouse (second phase); type: in vivo; conditions: Maus i.p., 21,5 mg/kg
# Description: Die Untersuchung zur Bestimmung der antinociceptiven Wirkung der Verbindungen der allgemeinen Formel (I) wird im Formalin-Test an männlichen Mäusen (NMRI, 25 bis 35 g Körpergewicht, Iffa, Credo, Belgien) durchgeführt.
# Im Formalin-Test werden gemäß D. Dubuisson et al., Pain 1977, 4, 161-174 die erste (frühe) Phase (0 bis 15 Minuten nach der Formalin-Injektion) und die zweite (späte) Phase (15 bis 60 Minuten nach der Formalin-Injektion) unterschieden. Die frühe Phase stellt als direkte Reaktion auf die Formalin-Injektion ein Modell für Akutschmerz dar, während die späte Phase als Modell für persistierenden (chronischen) Schmerz angesehen wird (T. J. Coderre et al., Pain 1993, 52, 259-285). Die entsprechenden Literaturbeschreibungen werden hiermit als Referenz eingeführt und gelten als Teil der Offenbarung. […]
# Anschließend wird für einen Untersuchungszeitraum von drei Minuten in der zweiten (späten) Phase des Formalin-Tests (21 bis 24 Minuten nach der Formalin-Injektion) das nociceptive Verhalten durch Beobachtung der Tiere kontinuierlich erfasst. Die Quantifizierung des Schmerzverhaltens erfolgt durch Summation der Sekunden, in denen die Tiere in dem Untersuchungszeitraum ein Lecken und Beißen der betroffenen Pfote zeigen. […]
# [2] = compound freshly dissolved from the solid substance, read-out: vGLUT (Ratte), IC50-Fest
Molecule,"IC50 [1, 2] [nM]","vGLUT (Ratte), Hemmung [%] [1] [%]","IC50 ([1]; read-out: vGLUT (Ratte), IC50) [nM]",also measured
"O=C(Nc1ccc(-c2ccc(NC(=O)c3ccccc3)c(C(=O)[O-])c2)cc1C(=O)[O-])c1ccccc1.[Na+].[Na+] [Beispiel 12, 4,4'-Bis-(benzamido)-biphenyl-3,3'-dicarbonsäure, Dinatriumsalz]",39,102,–,"Bennett-Test Ratte; Hemmung [%] (Sprague-Dawley Ratten; Ratte, 0,2 mg/kg/5 ml (i.p)): 38%@0,2 mg/kg/5 ml (i.p)"
"O=C(Cc1ccccc1)Nc1ccc(Cc2ccc(NC(=O)Cc3ccccc3)c(C(=O)O)c2)cc1C(=O)O [Beispiel 1, 5,5'-Methylen-bis(2-(2-phenylacetamido)benzoesäure)]",–,61,9160,–
"Cc1ccc(S(=O)(=O)Nc2ccc(-c3ccc(NS(=O)(=O)c4ccc(C)cc4)c(C(=O)O)c3)cc2C(=O)O)cc1 [Beispiel 8, 4,4'-Bis-(4-methylphenylsulfonamid)biphenyl-3,3'-dicarbonsäure, Dinatriumsalz]",490,92,–,"Bennett-Test Ratte; Hemmung [%] (Sprague-Dawley Ratten; Ratte, 4,64 mg/kg (i.v.)): 37%@ 4,64 mg/kg (i.v.); Phenylchinon-Writhing-Test Maus i.v. [Anzahl Writhing-Reaktionen in 15 min. p. appl.] (NMRI-Mäuse; Kontrolle 9,1±0,41): 7,8±1,16@10 mg/kg,; Anzahl Tiere mit ≤ 3 Writhing-Reaktionen (NMRI-Mäuse; Maus i.v.): (Anzahl Tiere mit ≤ 3 Writhing-Reaktionen: 1); Formalin-Test Maus i.p.; Hemmung [%] (Mäusen (NMRI)): 51%@21,5 mg/kg"
"Cc1ccc(S(=O)(=O)Nc2ccc(-c3ccc(NS(=O)(=O)c4ccc(C)cc4)c(C(=O)O)c3)cc2C(=O)O)cc1 [Beispiel 11, 4,4'-Bis(tolyl-4-sulfonylamino)biphenyl-3,3'-dicarbonsäure]",1530,97,–,–
"Cc1ccc(S(=O)(=O)Nc2ccc(Cc3ccc(NS(=O)(=O)c4ccc(C)cc4)c(C(=O)O)c3)cc2C(=O)O)cc1 [Beispiel 9, 5,5'-Methylen-bis(2-(4-methylphenylsulfonamido)benzoesäure)]",–,47,–,–
"Nc1ccccc1C(=O)Nc1ccc(-c2ccc(NC(=O)c3ccccc3N)c(C(=O)O)c2)cc1C(=O)O [Beispiel 13, 4,4'-Bis-(2-aminobenzamido)biphenyl-3,3'-dicarbonsäure, Dinatriumsalz]",600,96,–,–
"O=C(O)c1cc(-c2ccc(NC(=O)c3cccc4ccccc34)c(C(=O)O)c2)ccc1NC(=O)c1cccc2ccccc12 [Beispiel 5, 4,4'-Bis-[(naphthalin-1-carbonyl)-amino]-biphenyl-3,3'-dicarbonsäure]",–,50,–,–
"O=C(O)c1cc(NC(=O)c2cccc3ccccc23)c(C(=O)O)cc1NC(=O)c1cccc2ccccc12 [Beispiel 7, 2,5-Bis-[(naphthalin-1-carbonyl)-amino]-terephthalsäure]",–,78,2340,–
"Nc1ccccc1C(=O)Nc1ccc(-c2ccc(NC(=O)c3ccccc3N)c(C(=O)O)c2)cc1C(=O)O [Beispiel 6, 4,4'-Bis-(2-aminobenzamido)biphenyl-3,3'-dicarbonsäure]",38,101,89.7,–
"Nc1ccccc1C(=O)Nc1ccc(-c2ccc(NC(=O)c3ccccc3N)c(C(=O)O)c2)cc1C(=O)O [Beispiel 4, 4,4'-Bis-(2-amino-benzoylamino)-biphenyl-3,3'-dicarbonsäure]",93,99,43.2,–
"Nc1ccc(-c2ccc(N)c(C(=O)O)c2)cc1C(=O)O [Beispiel 14, 4,4'-Bisaminobiphenyl-3,3'-dicarbonsäure, Dinatriumsalz]",47800,24,–,–
"O=C(c1ccc(C(=O)O)c(NC(=O)c2cccc3ccccc23)c1)c1ccc(C(=O)O)c(NC(=O)c2cccc3ccccc23)c1 [Beispiel 3, 4,4'-Carbonyl-bis(2-(1-naphthamido)benzoesäure)]",–,97,380,–
"CC(=O)Nc1cc(C(=O)c2ccc(C(=O)O)c(NC(C)=O)c2)ccc1C(=O)O [Beispiel 2, 4,4'-Carbonyl-bis(2-acetamidobenzoesäure)]",–,47,–,–
"2,2'-(3,3'-Sulfonyl-bis-(4,1-phenylen)-bis-(azanediyl))-bis-(oxomethylen)-bis-(azanediyl)dibenzoesäure [Beispiel 10]",2350,86,–,–

# Source: patent EP2332529A1, “Substituted aromatic diamines as ligands of vesicular glutamate transporter 1 and 2 (vGLUT1 and vGLUT2)” (Grünenthal GmbH, priority 2009, dated 2011)
